According to patent US9302999B2, “Substituted triazoles as herbicides” (E. I. DU PONT DE NEMOURS AND COMPANY, priority 2012, dated 2016):

Columns and labels:
Format in all cases: in vivo
Oilseed Rape = assay: Test C preemergence: oilseed rape; conditions: scale 0 (no effect) to 100 (complete control)
[1] = tested on: johnsongrass (Sorghum halepense); assay: Test F pre-/postemergence: johnsongrass; conditions: Preemergence
Outline: (§1)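 Seeds were sown in silt loam soil and sprayed preemergence with test chemical in a non-phytotoxic solvent mixture containing surfactant; postemergence treatments went onto plants 2 to 18 cm tall (1- to 4-leaf stage) grown in peat moss/vermiculite medium. After 14 to 21 days in a greenhouse, injury was rated visually against controls, 0 (no effect) to 100 (complete control).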

[2] = tested on: waterhemp (common waterhemp, Amaranthus rudis); assay: Test F pre-/postemergence: waterhemp
Outline: as §1

[3] = tested on: foxtail, giant (giant foxtail, Setaria faberii); assay: Test F pre-/postemergence: foxtail, giant; conditions: Preemergence
Outline: as §1

[4] = tested on: lambsquarters (Chenopodium album); assay: Test F pre-/postemergence: lambsquarters; conditions: Preemergence
Outline: as §1

[5] = tested on: canarygrass (Phalaris minor); assay: Test D pre-/postemergence: canarygrass
Outline: (§2)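 Visual ratings from 0 (no effect) to 100 (complete control) were made 14–21 days after treatment, relative to controls. Applications were preemergence to seeds in silt loam, or postemergence to 2–18 cm (1–4 leaf) plants in peat-based medium. Compounds were formulated in a surfactant-containing non-phytotoxic solvent.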

[6] = tested on: radish, wild (wild radish, Raphanus raphanistrum); assay: Test D pre-/postemergence: radish, wild
Outline: as §2

[7] = tested on: blackgrass (Alopecurus myosuroides); assay: Test D pre-/postemergence: blackgrass
Outline: as §2

[8] = tested on: deadnettle (henbit deadnettle, Lamium amplexicaule); assay: Test D pre-/postemergence: deadnettle
Outline: as §2

[9] = tested on: barley, winter (winter barley, Hordeum vulgare); assay: Test D pre-/postemergence: barley, winter
Outline: as §2

[10] = 16 g ai/ha, scale 0 to 100, 0 no effect, 100 complete control
[11] = 31 g ai/ha, scale 0 to 100, 0 no effect, 100 complete control
[12] = Postemergence, 250 g ai/ha, scale 0 to 100
[13] = Postemergence, 16 g ai/ha, scale 0 to 100
[14] = Postemergence, 31 g ai/ha, scale 0 to 100
[15] = Postemergence, 125 g ai/ha, scale 0 to 100
[16] = Preemergence, 16 g ai/ha, scale 0 to 100, 0 no effect, 100 complete control
[17] = Preemergence, 31 g ai/ha, scale 0 to 100, 0 no effect, 100 complete control
[18] = Preemergence, 125 g ai/ha, scale 0 to 100
[19] = Preemergence, 250 g ai/ha, scale 0 to 100
[20] = Postemergence, 31 g ai/ha, scale 0 to 100 (0 no effect, 100 complete control)
[21] = Postemergence, 62 g ai/ha, scale 0 to 100 (0 no effect, 100 complete control)
[22] = Postemergence, 125 g ai/ha, scale 0 to 100, 0 no effect, 100 complete control
[23] = Preemergence, 62 g ai/ha, scale 0 to 100
[24] = 8 g ai/ha, scale 0 to 100, 0 no effect, 100 complete control

Compound: FCc1nn(-c2ccc(F)cc2)nc1Oc1ccnc(C(F)(F)F)c1 [Compound 160]
- Plant response rating, Oilseed Rape (Oilseed Rape; 16 g ai/ha): 0

Compound: CCOc1nn(-c2ccc(C(F)(F)F)cc2)nc1Cc1ccnc(C(F)(F)F)c1 [Compound 164, 4-[[5-ethoxy-2-[4-(trifluoromethyl)phenyl]-2H-1,2,3-triazol-4-yl]methyl]-2-(trifluoromethyl)pyridine]
- Plant response rating, Oilseed Rape (Oilseed Rape; 31 g ai/ha): 5

Compound: CCCc1nn(-c2ccc(F)cc2)nc1Oc1ccnc(C(F)(F)F)c1 [Compound 168]
- Plant response rating, Oilseed Rape (Oilseed Rape; 31 g ai/ha): 100

Compound: CCc1nn(-c2ccc(C(F)(F)F)cc2)nc1Oc1ccnc(C(F)(F)F)c1 [Compound 169]
- Plant response rating, Johnsongrass [1, 10]: 0
- Plant response rating, Johnsongrass [1, 11]: 0
- Plant response rating, Johnsongrass ([1]; 62 g ai/ha, scale 0 to 100): 20
- Plant response rating, Johnsongrass ([1]; 125 g ai/ha, scale 0 to 100): 50
- Plant response rating, Johnsongrass ([1]; 250 g ai/ha, scale 0 to 100): 80
- Plant response rating, Waterhemp [2, 12]: 100
- Plant response rating, Waterhemp [2, 13]: 75
- Plant response rating, Waterhemp [2, 14]: 90
- Plant response rating, Waterhemp ([2]; Postemergence, 62 g ai/ha, scale 0 to 100): 90
- Plant response rating, Waterhemp [2, 15]: 100
- Plant response rating, Waterhemp [2, 16]: 60
- Plant response rating, Waterhemp [2, 17]: 80
- Plant response rating, Waterhemp [2, 18]: 100
- Plant response rating, Waterhemp [2, 19]: 100
- Plant response rating, Foxtail, Giant [3, 10]: 70
- Plant response rating, Foxtail, Giant [3, 11]: 100
- Plant response rating, Foxtail, Giant ([3]; 62 g ai/ha, scale 0 to 100): 100
- Plant response rating, Foxtail, Giant ([3]; 125 g ai/ha, scale 0 to 100): 100
- Plant response rating, Foxtail, Giant ([3]; 250 g ai/ha, scale 0 to 100): 100
- Plant response rating, Lambsquarters [4, 10]: 0
- Plant response rating, Lambsquarters [4, 11]: 30
- Plant response rating, Lambsquarters ([4]; 62 g ai/ha, scale 0 to 100): 98
- Plant response rating, Lambsquarters ([4]; 125 g ai/ha, scale 0 to 100): 98
- Plant response rating, Lambsquarters ([4]; 250 g ai/ha, scale 0 to 100): 100
- Plant response rating, Oilseed Rape (Oilseed Rape; 31 g ai/ha): 50

Compound: CCCc1nn(-c2ccc(C(F)(F)F)cc2)nc1Oc1ccnc(C(F)(F)F)c1 [Compound 170]
- Plant response rating, Oilseed Rape (Oilseed Rape; 31 g ai/ha): 95

Compound: CCc1nn(-c2ccc(F)c(F)c2)nc1Oc1ccnc(C(F)(F)F)c1 [Compound 171]
- Plant response rating, Johnsongrass [1, 10]: 0
- Plant response rating, Johnsongrass [1, 11]: 0
- Plant response rating, Johnsongrass ([1]; 62 g ai/ha, scale 0 to 100): 10
- Plant response rating, Johnsongrass ([1]; 125 g ai/ha, scale 0 to 100): 65
- Plant response rating, Johnsongrass ([1]; 250 g ai/ha, scale 0 to 100): 75
- Plant response rating, Waterhemp [2, 16]: 0
- Plant response rating, Waterhemp [2, 17]: 95
- Plant response rating, Waterhemp [2, 18]: 100
- Plant response rating, Waterhemp [2, 19]: 100
- Plant response rating, Foxtail, Giant [3, 10]: 40
- Plant response rating, Foxtail, Giant [3, 11]: 60
- Plant response rating, Foxtail, Giant ([3]; 62 g ai/ha, scale 0 to 100): 100
- Plant response rating, Foxtail, Giant ([3]; 125 g ai/ha, scale 0 to 100): 100
- Plant response rating, Foxtail, Giant ([3]; 250 g ai/ha, scale 0 to 100): 100
- Plant response rating, Lambsquarters [4, 10]: 0
- Plant response rating, Lambsquarters [4, 11]: 0
- Plant response rating, Lambsquarters ([4]; 62 g ai/ha, scale 0 to 100): 35
- Plant response rating, Lambsquarters ([4]; 125 g ai/ha, scale 0 to 100): 65
- Plant response rating, Lambsquarters ([4]; 250 g ai/ha, scale 0 to 100): 98
- Plant response rating, Oilseed Rape (Oilseed Rape; 31 g ai/ha): 0

Compound: CCCc1nn(-c2ccc(F)c(F)c2)nc1Oc1ccnc(C(F)(F)F)c1 [Compound 172]
- Plant response rating, Johnsongrass [1, 11]: 50
- Plant response rating, Johnsongrass ([1]; 125 g ai/ha, scale 0 to 100): 75
- Plant response rating, Johnsongrass ([1]; 250 g ai/ha, scale 0 to 100): 100
- Plant response rating, Waterhemp [2, 12]: 100
- Plant response rating, Waterhemp [2, 14]: 95
- Plant response rating, Waterhemp [2, 15]: 100
- Plant response rating, Waterhemp [2, 17]: 98
- Plant response rating, Waterhemp [2, 18]: 100
- Plant response rating, Waterhemp [2, 19]: 100
- Plant response rating, Foxtail, Giant [3, 11]: 100
- Plant response rating, Foxtail, Giant ([3]; 125 g ai/ha, scale 0 to 100): 100
- Plant response rating, Foxtail, Giant ([3]; 250 g ai/ha, scale 0 to 100): 100
- Plant response rating, Lambsquarters [4, 11]: 50
- Plant response rating, Lambsquarters ([4]; 125 g ai/ha, scale 0 to 100): 98
- Plant response rating, Lambsquarters ([4]; 250 g ai/ha, scale 0 to 100): 98
- Plant response rating, Oilseed Rape (Oilseed Rape; 31 g ai/ha): 60

Compound: CCCc1nn(-c2ccc(F)cc2F)nc1Oc1ccnc(C(F)(F)F)c1 [Compound 179]
- Plant response rating, Oilseed Rape (Oilseed Rape; 31 g ai/ha): 80

Compound: CCc1nn(-c2ccc(C(F)(F)F)c(F)c2)nc1Oc1ccnc(C(F)(F)F)c1 [Compound 183]
- Plant response rating, Oilseed Rape (Oilseed Rape; 31 g ai/ha): 60

Compound: CCOc1nn(-c2ccc(Cl)cc2)nc1Cc1ccnc(C(F)(F)F)c1 [Compound 188]
- Plant response rating, Oilseed Rape (Oilseed Rape; 31 g ai/ha): 20

Compound: CCOc1nn(-c2ccc(F)cc2)nc1Cc1ccnc(C(F)(F)F)c1 [Compound 196, 4-[[5-ethoxy-2-(4-fluorophenyl)-2H-1,2,3-triazol-4-yl]methyl]-2-(trifluoromethyl)pyridine]
- Plant response rating, Johnsongrass [1, 10]: 65
- Plant response rating, Johnsongrass [1, 11]: 65
- Plant response rating, Johnsongrass ([1]; 62 g ai/ha, scale 0 to 100): 95
- Plant response rating, Johnsongrass ([1]; 125 g ai/ha, scale 0 to 100): 98
- Plant response rating: Canarygrass [5, 20]: 70
- Plant response rating: Canarygrass [5, 21]: 80
- Plant response rating: Canarygrass [5, 22]: 85
- Plant response rating, Canarygrass [5, 13]: 30
- Plant response rating, Canarygrass [5, 16]: 40
- Plant response rating, Canarygrass [5, 17]: 100
- Plant response rating, Canarygrass [5, 23]: 100
- Plant response rating, Canarygrass [5, 18]: 100
- Plant response rating: Radish, Wild [6, 20]: 100
- Plant response rating: Radish, Wild [6, 21]: 100
- Plant response rating: Radish, Wild [6, 22]: 100
- Plant response rating, Radish, Wild [6, 13]: 65
- Plant response rating, Radish, Wild [6, 16]: 50
- Plant response rating, Radish, Wild [6, 17]: 20
- Plant response rating, Radish, Wild [6, 23]: 70
- Plant response rating, Radish, Wild [6, 18]: 100
- Plant response rating: Blackgrass [7, 20]: 65
- Plant response rating: Blackgrass [7, 21]: 85
- Plant response rating: Blackgrass [7, 22]: 80
- Plant response rating, Blackgrass [7, 13]: 15
- Plant response rating, Blackgrass [7, 16]: 10
- Plant response rating, Blackgrass [7, 17]: 20
- Plant response rating, Blackgrass [7, 23]: 100
- Plant response rating, Blackgrass [7, 18]: 100
- Plant response rating, Waterhemp ([2]; Preemergence, 8 g ai/ha, scale 0 to 100, 0 no effect, 100 complete control): 50
- Plant response rating, Waterhemp [2, 16]: 95
- Plant response rating, Waterhemp [2, 17]: 98
- Plant response rating, Waterhemp [2, 18]: 100
- Plant response rating, Foxtail, Giant [3, 24]: 5
- Plant response rating, Foxtail, Giant [3, 10]: 85
- Plant response rating, Foxtail, Giant [3, 11]: 98
- Plant response rating, Foxtail, Giant ([3]; 62 g ai/ha, scale 0 to 100): 98
- Plant response rating, Foxtail, Giant ([3]; 125 g ai/ha, scale 0 to 100): 100
- Plant response rating: Deadnettle [8, 20]: 100
- Plant response rating: Deadnettle [8, 21]: 100
- Plant response rating: Deadnettle [8, 22]: 100
- Plant response rating, Deadnettle [8, 13]: 85
- Plant response rating, Deadnettle [8, 16]: 10
- Plant response rating, Deadnettle [8, 17]: 40
- Plant response rating, Deadnettle [8, 23]: 100
- Plant response rating, Deadnettle [8, 18]: 100
- Plant response rating, Lambsquarters [4, 24]: 60
- Plant response rating, Lambsquarters [4, 10]: 70
- Plant response rating, Lambsquarters [4, 11]: 80
- Plant response rating, Lambsquarters ([4]; 62 g ai/ha, scale 0 to 100): 95
- Plant response rating, Lambsquarters ([4]; 125 g ai/ha, scale 0 to 100): 98
- Plant response rating: Barley, Winter [9, 20]: 20
- Plant response rating: Barley, Winter [9, 21]: 35
- Plant response rating: Barley, Winter [9, 22]: 40
- Plant response rating, Barley, Winter [9, 13]: 15
- Plant response rating, Barley, Winter [9, 16]: 5
- Plant response rating, Barley, Winter [9, 17]: 10
- Plant response rating, Barley, Winter [9, 23]: 15
- Plant response rating, Barley, Winter [9, 18]: 40
